Results from patent US8110660B2, “Soluble ENPP4 protein” (Ono Pharmaceutical Co., Ltd., priority 2004, dated 2012).
Blank lines part the entries; values can stand above or below the compound they belong to.

Key:
Format in all cases: biochemical
[1] = molecular target: T1, purified soluble type ENPP5 protein (Homo sapiens, UniProt Q9UJA9); test: Inhibition of light-emitting substrate degradation by soluble type ENPP5 protein
T1 construct: signal peptide; base No. 1 to 66, mature protein; base No. 67 to 1287; made in house; host or cells: HEK293T (secreted into culture supernatant, His-Trap purified)
T1 sequence (Q9UJA9 23-429): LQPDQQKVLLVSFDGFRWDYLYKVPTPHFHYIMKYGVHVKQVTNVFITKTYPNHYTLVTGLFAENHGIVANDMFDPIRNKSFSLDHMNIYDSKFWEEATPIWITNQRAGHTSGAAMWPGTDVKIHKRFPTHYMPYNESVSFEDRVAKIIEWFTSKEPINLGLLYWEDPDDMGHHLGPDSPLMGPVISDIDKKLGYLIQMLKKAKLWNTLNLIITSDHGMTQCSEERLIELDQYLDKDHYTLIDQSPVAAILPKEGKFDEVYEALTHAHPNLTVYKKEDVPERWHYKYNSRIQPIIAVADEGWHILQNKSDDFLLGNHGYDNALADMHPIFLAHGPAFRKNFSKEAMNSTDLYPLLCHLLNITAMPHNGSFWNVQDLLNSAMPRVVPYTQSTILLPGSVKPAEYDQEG
Experimental: 0.2 μg of the purified soluble type ENPP5 protein was mixed in 90 μL of assay buffer (20 mM HEPES, 140 mM NaCl, 5 mM KCl, 10 mM Glucose, pH 7.5), and 10 μL of each of 10 mM pNP-PP and a solution of a test compound was added thereto, and then was kept at 37° C. for 2 hours. Then, absorption of light of 405 nm was measured and thereby, the amount of p-nitorphenol was quantitatively determined and thereby the inhibitory activity of […] pNP-PP degradation of each of the test compound was examined. By using Neurotransmitter Library Plate 10 (Purinergic & adenosines) ver. 2 (manufactured by BIOMOL Inc.) as test compounds, and the inhibitory activity of pNP-TMP degradation of each of 1 mM compounds was measured and, 70% or more of the inhibitory activity was detected in 2-Methyl-ATP, and 80% or more of the inhibitory activity was detected in ADP, UDP, and GDP.

[2] = molecular target: T2, purified soluble type ENPP4 protein (Homo sapiens, UniProt Q9Y6X5); test: Identification of nucleic acids to be ENPP4 substrate (HPLC); settings: for degradation by ENPP4 (NMP detected as reacted product) / degradation amount / activity of degrading by ENPP4: 200 μM nucleic acid, HPLC, FIG. 15; for degradation by ENPP4 (NMP detected as reacted product): pH 8.5, 37° C., 2, 5 or 8 hours
T2 construct: signal peptide; base No. 1 to 45, mature protein; base No. 46 to 1212; made in house; host or cells: HEK293T (secreted into culture supernatant, His-Trap purified)
T2 sequence (Q9Y6X5 16-404): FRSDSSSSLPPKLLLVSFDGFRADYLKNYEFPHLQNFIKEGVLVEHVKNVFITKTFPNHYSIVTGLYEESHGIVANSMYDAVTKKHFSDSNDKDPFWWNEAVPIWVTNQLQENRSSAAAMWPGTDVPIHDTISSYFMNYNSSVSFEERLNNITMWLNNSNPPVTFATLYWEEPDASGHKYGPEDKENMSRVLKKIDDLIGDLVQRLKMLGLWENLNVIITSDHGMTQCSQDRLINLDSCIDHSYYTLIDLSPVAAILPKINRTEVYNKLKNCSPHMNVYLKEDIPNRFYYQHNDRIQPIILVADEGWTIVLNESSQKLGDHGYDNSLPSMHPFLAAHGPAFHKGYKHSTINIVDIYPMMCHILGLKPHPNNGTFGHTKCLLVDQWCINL
Experimental: (§1) 0.5 μg of the purified soluble type ENPP4 protein was mixed in 500 μL of assay buffer (20 mM HEPES, 140 mM NaCl, 5 mM KCl, 10 mM Glucose, pH 8.5), and then, each kind of nucleic acids were added thereto so that its final concentration became 200 μM. The mixture was kept at 37° C. for 2, 5, or 8 hours. Then, by using HPLC (Unison-UKC18 reversed-phase column 30×2 mm, manufactured by Imtakt Co., Ltd.) (mobile phase: 50 mM sodium phosphate buffer (pH 6.4), 5 mM tetrabutylammonium hydrogen sulfate, 1 mM EDTA, 2-30% acetonitrile), the nucleic acids were separated from the reacted solution, and the substrates and the reacted products were quantitatively determined.

[3] = molecular target: T1, purified soluble type ENPP5 protein; test: Identification of nucleic acids to be ENPP5 substrate (HPLC); settings: 200 μM nucleic acid, pH 7.5, 37° C., 2, 5 or 8 hours, FIG. 15
Experimental: as §1, with “ENPP5” for “ENPP4”, “7.5),” for “8.5),”, “performed” for “kept”

[4] = molecular target: T2, purified soluble type ENPP4 protein; test: Inhibition of pNP-TMP or pNP-PP degradation by soluble type ENPP4 protein
Experimental: 0.2 μg of the purified soluble type ENPP4 protein was mixed in 90 μL of assay buffer (20 mM HEPES, 140 mM NaCl, 5 mM KCl, 10 mM Glucose, pH 8.5), and 10 μL of each of 10 mM pNP-TMP or pNP-PP and a solution of a test compound was added thereto, and then was kept at 37° C. for 2 hours. Then, absorption of light of 405 nm was measured and thereby, the amount of p-nitorphenol was quantitatively determined and thereby the inhibitory activity of pNP-TMP or pNP-PP degradation of each test compound was examined. By using pNP-TMP and Neurotransmitter Library Plate 10 (Purinergic & adenosines) ver. […] Moreover, 60% or more of the inhibitory activity was detected in CDP-Choline, and 40% or more of the inhibitory activity was detected in P1P3-DiAdenosine-triphosphate (AP(3)A), P1P6-DiAdenosine-hexaphosphate (AP(6)A).

[5] = molecular target: T3, purified soluble type ENPP6 protein (Homo sapiens, UniProt Q6UWR7); test: Inhibition of light-emitting substrate degradation by soluble type ENPP6 protein
T3 construct: signal peptide; base No. 1 to 66, mature protein; base No. 67 to 1269; made in house; host or cells: HEK293T (secreted into culture supernatant, His-Trap purified)
T3 sequence (Q6UWR7 23-423): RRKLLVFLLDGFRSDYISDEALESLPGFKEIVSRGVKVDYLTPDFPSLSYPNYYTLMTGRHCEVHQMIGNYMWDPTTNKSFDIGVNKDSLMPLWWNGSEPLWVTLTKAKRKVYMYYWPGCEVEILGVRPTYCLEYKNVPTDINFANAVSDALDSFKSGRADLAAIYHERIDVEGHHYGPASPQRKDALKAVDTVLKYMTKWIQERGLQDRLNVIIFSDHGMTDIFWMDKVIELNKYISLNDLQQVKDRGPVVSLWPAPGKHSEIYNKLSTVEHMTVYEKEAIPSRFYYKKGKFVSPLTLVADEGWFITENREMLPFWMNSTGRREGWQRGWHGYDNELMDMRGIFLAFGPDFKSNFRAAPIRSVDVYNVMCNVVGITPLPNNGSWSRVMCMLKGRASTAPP
Experimental: 0.2 μg of the purified soluble type ENPP6 protein was mixed in 90 μL of assay buffer (20 mM HEPES, 140 mM NaCl, 5 mM KCl, 1 mM CaCl2, 1 mM MgCl2, 10 mM Glucose, pH 9.6), and 10 μL of each of 10 mM pNP-PP and a solution of a test compound was added thereto, and was kept at 37° C. for 2 hours. Then, absorption of light of 405 nm was measured and thereby, the amount of p-nitorphenol was quantitatively determined and thereby the inhibitory activity of […] degradation of each of the test compounds was examined. By using Neurotransmitter Library Plate 10 (Purinergic & adenosines) ver. 2, Bioactive Lipid Library ver. 3 (manufactured by BIOMOL Inc.), and various lysophospholipids as test compounds, the inhibitory activity of pNP-PP degradation was measured and, 80% or more of the inhibitory activity was detected in Glycerophosphorilcholine, and 70% or more of the inhibitory activity in Lysophosphatidylcholine, 1-Methyladenosine, 3-Deazaadenosine, ATP, and ADP(1 mM), and 60% or more of the inhibitory activity in N6-Methyladenosine, N6-Methyl-2′-deoxy-adenosine, S-Adenosyl-L-Homocysteine, and 2-MethylthioATP.

Compound: Nc1ncnc2c1ncn2[C@@H]1O[C@H](COP(=O)(O)OP(=O)(O)O)[C@@H](O)[C@H]1O [ADP]
degradation by ENPP4 (NMP detected as reacted product) [2]: degraded by ENPP4
degradation by ENPP5 (NMP detected as reacted product) [3]: degraded by ENPP5

Compound: Nc1ncnc2c1ncn2[C@@H]1O[C@H](COP(=O)(O)OP(=O)(O)OP(=O)(O)OC[C@H]2O[C@@H](n3cnc4c(N)ncnc43)[C@H](O)[C@@H]2O)[C@@H](O)[C@H]1O [AP(3)A, P1P3-DiAdenosine-triphosphate]
degradation by ENPP4 (NMP detected as reacted product) [2]: degraded by ENPP4

Compound: Nc1ncnc2c1ncn2[C@@H]1O[C@H](COP(=O)(O)OP(=O)(O)OP(=O)(O)OP(=O)(O)OC[C@H]2O[C@@H](n3cnc4c(N)ncnc43)[C@H](O)[C@@H]2O)[C@@H](O)[C@H]1O [AP(4)A, P1P4-DiAdenosine-tetraphosphate]
degradation amount / activity of degrading by ENPP4 [2]: lower than the activity of degrading Ap(3)A
degradation by ENPP4 (NMP detected as reacted product) [2]: degraded by ENPP4

Compound: Nc1ncnc2c1ncn2[C@@H]1O[C@H](COP(=O)(O)OP(=O)(O)OP(=O)(O)OP(=O)(O)OP(=O)(O)OP(=O)(O)OC[C@H]2O[C@@H](n3cnc4c(N)ncnc43)[C@H](O)[C@@H]2O)[C@@H](O)[C@H]1O [AP(6)A, P1P6-DiAdenosine-hexaphosphate]
degradation by ENPP4 (NMP detected as reacted product) [2]: degraded by ENPP4

Compound: C[N+](C)(C)CCOP(=O)(O)OP(=O)([O-])OC[C@H]1O[C@@H](n2ccc(N)nc2=O)[C@H](O)[C@@H]1O [CDP-Choline]
inhibition at 1000 µM ([4]; 1 mM compound, pH 8.5, 37° C., 2 hours, FIG. 11 (pNP-TMP), read-out: inhibitory activity of pNP-TMP or pNP-PP degradation): ≥ 60%
degradation by ENPP4 (NMP detected as reacted product) [2]: degraded by ENPP4
degradation by ENPP5 (NMP detected as reacted product) [3]: degraded by ENPP5

Compound: C[N+](C)(C)CCOP(=O)([O-])OC[C@H](O)CO [Glycerophosphorilcholine]
inhibitory activity of pNP-PP degradation ([5]; pH 9.6, 37° C., 2 hours, 1 mM printed for ADP): ≥ 80%

Compound: Lysophosphatidylcholine
concentration dependence of inhibitory activity of pNP-TMP degradation by ENPP6 ([5]; FIG. 14): inhibitory activity of pNP-TMP degradation depending on concentration of LPC was detected

Compound: diadenosine 5-phosphate [Ap(5)A]
degradation by ENPP4 (NMP detected as reacted product) [2]: degraded by ENPP4

More lines, main results first:

inhibitory activity of pNP-TMP degradation ([1]; 1 mM compound, pH 7.5, 37° C., 2 hours): ≥ 70%
Compound: Cc1nc(N)c2ncn(C3OC(COP(=O)(O)OP(=O)(O)OP(=O)(O)O)C(O)C3O)c2n1 (centres unmarked) [2-Methyl-ATP]

degradation amount / activity of degrading by ENPP4 [2]: small
degradation by ENPP4 (NMP detected as reacted product) [2]: degraded by ENPP4
inhibitory activity against ENPP4 (concluded from small degradation and high inhibition) ([2]; conclusion from Examples 16 and 19): has an inhibitory activity against ENPP4
Compound: Nc1ncnc2c1ncn2[C@@H]1O[C@H](COP(=O)(O)OP(=O)(O)OP(=O)(O)O)[C@@H](O)[C@H]1O [ATP]
concentration dependence of inhibitory activity against ENPP4 ([4]; FIG. 12, pNP-TMP degradation): inhibitory activity depending on concentration of ATP was detected
concentration dependence of inhibitory activity of pNP-PC degradation by ENPP5 ([1]; FIG. 13): inhibitory activity of pNP-PC degradation depending on concentration of ATP was detected

degradation by ENPP4 (NMP detected as reacted product) [2]: degraded by ENPP4
Compound: Nc1ccn([C@@H]2O[C@H](COP(=O)(O)OP(=O)(O)O)[C@@H](O)[C@H]2O)c(=O)n1 [CDP]

degradation by ENPP4 (NMP detected as reacted product) [2]: degraded by ENPP4
Compound: Nc1ccn([C@@H]2O[C@H](COP(=O)(O)OP(=O)(O)OP(=O)(O)O)[C@@H](O)[C@H]2O)c(=O)n1 [CTP]

degradation by ENPP4 (NMP detected as reacted product) [2]: degraded by ENPP4
degradation by ENPP5 (NMP detected as reacted product) [3]: degraded by ENPP5
Compound: O=c1ccn([C@@H]2O[C@H](COP(=O)(O)OP(=O)(O)O)[C@@H](O)[C@H]2O)c(=O)[nH]1 [UDP]

degradation by ENPP4 (NMP detected as reacted product) [2]: degraded by ENPP4
Compound: O=c1ccn([C@@H]2O[C@H](COP(=O)(O)OP(=O)(O)OP(=O)(O)O)[C@@H](O)[C@H]2O)c(=O)[nH]1 [UTP]
